This is an account of results in paper PMC6287892, “Design, Synthesis, and Biological Evaluation of 3-(Imidazo[1,2-a]pyrazin-3-ylethynyl)-4-isopropyl-N-(3-((4-methylpiperazin-1-yl)methyl)-5-(trifluoromethyl)phenyl)benzamide as a Dual Inhibitor of Discoidin Domain Receptors 1 and 2” (Journal of Medicinal Chemistry, 2018).

The test system of data set [1] is Male C57BL/6 mice. Briefly: Acute-toxicity assay in mice. The following applies: 200 or 400 mg/kg by gavage. The data set is classed as in vivo. As to the method:
Male C57BL/6 mice weighing 18–20 g were randomly divided into three groups (n = 5 per group). Mice were gavage-administered 200 μL of the drug (at 200 or 400 mg/kg in physiological saline). Mice in the control group received 200 μL of physiological saline. After drug administration, body-weight changes were recorded for 7 days.

Data set [2] can be described thus: Pharmacokinetic parameters in rats. The data set is classed as in vivo. The settings on record: SD rats. As to the method: Male SD rats weighing 180–220 g (Southern China Medical University) were utilized for the studies. The protocol was approved by the Animal Care and Use Committee, GIBH. Animals were given standard animal chow and water ad libitum in a climate-controlled room (23 ± 1 °C, 30–70% relative humidity, a minimum of 10 exchanges of room air per hour, and a 12 h light–dark cycle) for 1 week prior to experiments. The compound was dissolved in a solution containing 2% DMSO, 4% ethanol, 4% castor oil, and 90% ddH2O. The pharmacokinetic properties of the SD rats (male) were determined following iv and oral administration. Animals were randomly distributed into two experimental groups (n = 3). […] After single administration, whole blood samples (100–200 μL) were obtained from the orbital venous plexus at the following time points after dosing: 5, 10, and 30 min and 1, 2, 3, 4, 6, 8, 11, and 24 h (po) or 2, 10, and 30 min and 1, 2, 3, 4, 6, 8, 11, and 24 h (iv). Whole blood samples were collected in heparinized tubes. The plasma fraction was immediately separated by centrifugation (8000 rpm, 6 min, 4 °C) and stored at −20 °C until LC-MS analysis. The rats were humanely euthanasia by carbon dioxide 24 h after the experiment without pain. The pharmacokinetics parameters were calculated by analyzing the compound concentrations in plasma samples using the pharmacokinetic software DAS.2.0.

[3] abbreviates: male, rat, plasma, iv (4 mg/kg).
The mark [4] stands for this setting: male, rat, plasma, oral (20 mg/kg).

Molecules are shown by their SMILES.

Turning to `CC(C)c1ccc(C(=O)Nc2cc(CN3CCN(C)CC3)cc(C(F)(F)F)c2)cc1C#Cc1cnc2cnccn12` [Compound 5n, 3-(Imidazo[1,2-a]pyrazin-3-ylethynyl)-4-isopropyl-N-(3-((4-methylpiperazin-1-yl)methyl)-5-(trifluoromethyl)phenyl)benzamide], the tolerability result in data set [1] is recorded as “well-tolerated”. For the same molecule, the “animal deaths and body-weight changes” value in data set [1] (7 days) was “no animal deaths or obvious body-weight changes”. This molecule also gave a BA in data set [2] (oral (20 mg/kg) vs iv (4 mg/kg)) of 8.06%. In data set [2] (setting [3]), this molecule gave an AUC(0-inf) of 798 ± 121 ng·h/mL, a Cmax of 1180 ± 150 ng/mL and a half-life of 2.12 ± 0.25 h. In addition, in data set [2] (male, rat, plasma, iv (4 mg/kg), read-out: CLz (converted)), the clearance is 85 mL/min/kg. In data set [2] (setting [4]), the AUC(0-inf) worked out at 322 ± 106 ng·h/mL, the highest level (Cmax) was 48.7 ± 18.2 ng/mL, the Tmax stood at 1.5 ± 1.3 h and the half-life was 2.08 ± 0.66 h.

In general, AUC(0-inf) refers to total exposure, with the tail of the curve extrapolated. A higher AUC(0-inf) goes with high exposure. A word on the Cmax: it is the peak of the concentration-time curve. As a reminder, the half-life is how long it takes for the measured level to halve. Read a high half-life as slow loss. By Tmax is commonly meant the time from dosing to the highest level.
